Legend:
[1] = tested on: fast skeletal muscle troponin complex; conditions: cited from earlier work
patients with ALS [2] = test: BENEFIT-ALS clinical trial: Maximum Voluntary Ventilation (MVV); format: in vivo, human
Method: (§1) BENEFIT-ALS was a multi-national, randomized, stratified, double-blind, placebo-controlled, parallel-group study of tirasemtiv in patients with ALS. The study consisted of a screening period, an open-label/lead-in period, and a double-blind treatment period. Following screening, eligible patients received open-label tirasemtiv, 125 mg BID, for 7 days. Patients who tolerated the 7-day lead-in period were randomized in a 1:1 ratio to tirasemtiv or placebo. Over the first 3 weeks of double-blind treatment, patients randomized to tirasemtiv had their TDD up-titrated as follows: 250 mg for 7 days, then 375 mg for 7 days, then 500 mg for 7 days. […] However, in such cases, dose escalation was re-attempted at least one additional time. The highest tolerable tirasemtiv dose for each individual patient was the dose that patient received for the remaining 9 weeks (i.e., the maximum tolerated dose [MTD] phase) of the study. Patients randomized to placebo underwent a corresponding dummy dose titration.
(§2) Randomization was stratified by riluzole use. […] Clinical assessments occurred every 4 weeks during double-blind treatment; patients also returned for follow-up evaluations at 1 and 4 weeks after their final dose of double-blind study medication (FIG. 1).
(§3) The secondary objectives included assessments of the effect of tirasemtiv versus placebo on measures of respiratory function (Maximum Voluntary Ventilation (MVV), Sniff Nasal Inspiratory Pressure (SNIP), SVC) and skeletal muscle function including handgrip fatigue and muscle-strength mega-score (i.e., the average z-score for muscle strength measurements across the following tested bilateral muscle groups: elbow flexion, wrist extension, knee extension, ankle dorsiflexion, and handgrip)). Secondary endpoints included the changes from baseline in each of the above mentioned measures (MVV, SNIP, SVC, and muscle-strength mega-score) for the Modified FAS, and the slope of each of the measures from baseline to Week 12 for the Modified FAS.
(§4) Eligible patients were males and females, 18 years of age and older, with a diagnosis of familial or sporadic ALS and meeting the World Federation of Neurology El Escorial criteria of definite ALS, probable ALS, laboratory-supported probable ALS, or possible ALS. Patients were to have an upright SVC>50% of predicted for age, height, and sex, a diminished, but measurable, maximum voluntary grip strength in at least one hand (i.e., between 10-50 pounds for females and 10-70 pounds for males), and at least 4 of the 12 ALSFRS-R questions were to have been scored as a 2 or 3. Patients were to be able to swallow tablets without crushing, and in the opinion of the investigator, were expected to do so for the duration of the study. If the patient needed a caregiver, the caregiver was to be able to observe the patient's status. Clinical laboratory results were to be either within their respective normal ranges or if outside the normal range, deemed not clinically significant by the investigator. […] Patients not taking riluzole prior to study entry were not permitted to take riluzole at any dose during the course of the study.
(§5) Safety data presented were based on the safety analysis set, defined as all patients who received at least 1 dose of double-blind study drug. Of the 605 randomized patients, 596 (295 placebo, 301 tirasemtiv) received at least 1 dose of double-blind study drug and were included in the safety analysis set. Data for the primary and secondary efficacy endpoints were analyzed with the Modified FAS. This analysis set included all patients who received at least 1 dose of double-blind study drug and had at least 1 efficacy assessment during the double-blind treatment period, and excluded 156 patients who were randomized in blocks containing patients affected by a study drug assignment error in which 58 patients randomized to and treated with double-blind tirasemtiv were dispensed double-blind placebo instead. […]

patients with ALS [3] = test: BENEFIT-ALS clinical trial: muscle strength mega-score; format: in vivo, human; conditions: for Muscle strength mega-score change from baseline (LS mean): based on percent change from baseline across several muscle groups
Method: as §1, §2, §3, §4, §5

muscle = conditions: other model systems; cited from earlier work
CYP 1A2 = molecular target: T1, CYP 1A2 (Homo sapiens, UniProt P05177); conditions: cited from earlier work
T1 sequence (P05177 1-516): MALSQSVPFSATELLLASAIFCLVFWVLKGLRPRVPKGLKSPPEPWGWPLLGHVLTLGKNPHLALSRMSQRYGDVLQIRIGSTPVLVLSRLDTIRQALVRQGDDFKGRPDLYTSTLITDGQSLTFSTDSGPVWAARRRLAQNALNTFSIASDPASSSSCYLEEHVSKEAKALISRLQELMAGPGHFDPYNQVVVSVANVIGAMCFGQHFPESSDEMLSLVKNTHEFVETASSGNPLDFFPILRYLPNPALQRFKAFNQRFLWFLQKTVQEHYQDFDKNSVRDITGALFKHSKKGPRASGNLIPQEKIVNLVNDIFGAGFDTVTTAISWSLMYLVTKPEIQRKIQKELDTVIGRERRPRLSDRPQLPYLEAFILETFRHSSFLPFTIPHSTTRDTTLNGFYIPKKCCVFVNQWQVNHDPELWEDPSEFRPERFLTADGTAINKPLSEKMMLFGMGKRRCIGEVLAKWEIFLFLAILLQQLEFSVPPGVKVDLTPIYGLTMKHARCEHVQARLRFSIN

patients with ALS [4] = test: BENEFIT-ALS clinical trial: slow vital capacity (SVC); format: in vivo, human
Method: as §1, §2, §3, §4, §5

[5] = BENEFIT-ALS clinical trial: body weight; format: in vivo; conditions: N=178
Method: as §1
Safety data presented were based on the safety analysis set, defined as all patients who received at least 1 dose of double-blind study drug. Of the 605 randomized patients, 596 (295 placebo, 301 tirasemtiv) received at least 1 dose of double-blind study drug and were included in the safety analysis set. Data for the primary and secondary efficacy endpoints were analyzed with the Modified FAS. This analysis set included all patients who received at least 1 dose of double-blind study drug and had at least 1 efficacy assessment during the double-blind treatment period, and excluded 156 patients who were randomized in blocks containing patients affected by a study drug assignment error in which 58 patients randomized to and treated with double-blind tirasemtiv were dispensed double-blind placebo instead. Based on these criteria, the Modified FAS consisted of 388 patients (210 placebo, 178 tirasemtiv).

For C#Cc1cnc2nc(O)n(C(CC)CC)c2n1 [Tirasemtiv, 6-ethynyl-1-(pentan-3-yl)-1H-imidazo[4,5-b]pyrazin-2(3H)one], the “Activity on fast skeletal muscle troponin complex” value [1] is listed as “highly selective activator”, the “Rate of calcium release from fast skeletal TnC” value [1] is listed as “slows the rate of calcium release” and the “MVV slope from baseline to Week 12” value (patients with ALS [2]; Modified FAS N=178) is listed as −0.0567. The “MVV change from baseline (LS mean)” value (patients with ALS [2]; Week 4, Modified FAS N=178) was -2.89 L/min, the “MVV change from baseline (LS mean)” value (patients with ALS [2]; Week 8, Modified FAS N=178) was -2.14 L/min and the “MVV change from baseline (LS mean)” value (patients with ALS [2]; Week 12, Modified FAS N=178) was -5.45 L/min. For the same compound, the “MVV versus placebo, in words” value (patients with ALS [2]; human, in vivo) was “no statistically significant difference between treatment groups”, the “MVV difference in slope (tirasemtiv vs placebo)” value (patients with ALS [2]; p=0.8799) was 0.0044 and the “Muscle strength mega-score slope from baseline to Week 12” value (patients with ALS [3]; Modified FAS N=178) was −0.1104. For the same compound, the “Muscle strength mega-score change from baseline (LS mean)” value (from here on “Muscle strength mega-score change”) (patients with ALS [3]; Week 4) was −4.36, the “Muscle strength mega-score change” value (patients with ALS [3]; Week 8) was −7.43 and the “Muscle strength mega-score change” value (patients with ALS [3]; Week 12) was −10.78. For the same compound, the “Muscle strength mega-score difference in slope (tirasemtiv vs placebo)” value (patients with ALS [3]; p=0.0158) was 0.1647, the “Muscle strength mega-score decline versus placebo, in words” value (patients with ALS [3]; p=0.0158 for the difference in slope) was “declined more slowly” and the Fatigability of muscle (muscle) was “decreased fatigability of muscle”. For the same compound, the Muscle power (muscle) was “increased muscle power”, the “Effect on CYP 1A2” value (CYP 1A2) was “inhibited” and the “SVC slope of changes from baseline to Week 12” value (patients with ALS [4]; Modified FAS N=178) was −0.0394. The “SVC change from baseline (LS mean)” value (patients with ALS [4]; Week 4, Modified FAS N=178) was −0.99 % predicted, the “SVC change from baseline (LS mean)” value (patients with ALS [4]; Week 8, Modified FAS N=178) was −2.85 % predicted and the “SVC change from baseline (LS mean)” value (patients with ALS [4]; Week 12, Modified FAS N=178) was −3.12 % predicted. For the same compound, the “SVC change from baseline (LS mean), post-treatment” value (patients with ALS [4]; Week 13, 1 week after last dose of double-blind study drug) was −3.75 % predicted, the “SVC change from baseline (LS mean), post-treatment” value (patients with ALS [4]; Week 16, 4 weeks after last dose of double-blind study drug) was −5.39 % predicted and the “LS mean±SE change from baseline in SVC” value (patients with ALS [4]; after 12 weeks of treatment) was −3.12%. For the same compound, the “SVC difference in slope (tirasemtiv vs placebo)” value (patients with ALS [4]; baseline to Week 12, p=0.0006) was 0.051, the “Treatment difference in change from baseline to average SVC after 8 and 12 weeks” value (from here on “Treatment difference in change”) (patients with ALS [4]; subgroup: baseline SVC>median at baseline, p<0.0001) was 6.02% and the “Treatment difference in change” value (patients with ALS [4]; subgroup: females, p=0.012) was 6.84%. For the same compound, the “Treatment difference in change” value (patients with ALS [4]; subgroup: non-riluzole users, p=0.0005) was 6.55%, the “Effect on decline of SVC, in words” value (patients with ALS [4]; versus placebo) was “statistically significant and potentially clinically meaningful reduction in the decline of SVC” and the “Weight change from baseline, LS mean” value ([5]; Week 4) was -0.83 kg. The “Weight change from baseline, LS mean” value ([5]; Week 8) was -1.30 kg and the “Weight change from baseline, LS mean” value ([5]; Week 12) was -1.70 kg.

Reference: patent US20170042890A1, “METHODS OF REDUCING DECLINE IN VITAL CAPACITY” (Cytokinetics, Inc., priority 2014, published 2017)
